Legend:
[1] = tested on: myocardial infarction by left coronary artery occlusion; assay: Model of myocardial infarction: left coronary ligation (Example 5); assay type: in vivo, rat; details: dose of 0.67 mg/kg
Method: Male Sprague-Dawley weighing 250-320 g are allowed free access to water and commercial rodent diet under standard laboratory conditions. Room temperature is maintained at 20-23° C. and room illumination is on a 12/12-hour light/dark cycle. Animals are acclimatized to the laboratory environment 5 to 7 days prior to the study and are fasted overnight prior to surgery.
Rats are anaesthetized with Urethane (1.2-1.5 gm/kg). Core body temperature is maintained at 37° C. by using a heating blanket. The surgical area is shaved, and a ventral midline incision is made to expose the trachea and jugular area. A catheter (PE50) is placed in the jugular for administration of compound and maintenance anesthesia. The trachea is incised and a 14-16-gauge modified intravenous catheter is inserted and tied in place as an endotracheal tube. The animal is placed in right lateral recumbency and initially placed on a Harvard ventilator with a tidal volume of 5-10 ml/kg. 100% O2 is delivered to the animals by the ventilator. ECG electrodes are placed to record a standard Lead II ECG. The surgical site is cleaned with alcohol swab, and a skin incision is made over rib cage over the 4th-5th intercostal space. […] The ECG is monitored for S-T changes indicative of ischemia. […] The ECG is monitored for the first 10 minutes of reperfusion. […]

[2] = tested on: transient focal cerebral ischemia induced by Middle Cerebral Artery Occlusion (MCAO); assay: Animal cerebral infarct assay: two-hour Middle Cerebral Artery Occlusion (MCAO) with reperfusion; assay type: in vivo, rat; details: intraventricular (i.c.v.), 0.0067 mg/kg to 0.67 mg/kg
Description: This assay is used to assess the efficacy of the test agents in protecting the brain against necrosis following cerebral ischemia induced in rats. Middle Cerebral Artery Occlusion (MCAO) is a widely used technique to induce transient focal cerebral ischemia in animal models. […] Furthermore, this model accurately represents the involvement of middle cerebral artery (MCA), the most affected vessel in human stroke, and also allows reperfusion as it happens in humans. MCAO by a two-hour occlusion is used to produce the maximum size of cortical infarction without increased mortality at twenty-four hours. Male Wistar rats (Hadan, Ind.) weighing 300-350 g were allowed free access to water and commercial rodent diet under standard laboratory conditions. The room temperature was maintained at 20-23° C. and room illumination was on a 12/12-hour light/dark cycle. The rats were acclimatized to the laboratory environment 5 to 7 days prior to the study. Before surgery, the animals were fasted overnight, but had free access to water. The rats were anesthetized with 3.0% isoflurane (Aerrane, Front Dodge, Iowa) in […] and the animal's neck was shaved and sterilized before the operation. The animals were subjected to two hours MCAO using a modified intraluminal filament technique. A midline incision on the ventral part of the neck was made to expose external and internal carotid arteries. The right external and common carotid arteries were ligated by a suture (silk 5/0, Carlisle Laboratories, Farmers Branch, Tex.) and the right internal artery was temporarily ligated by a microvascular clip (Fine Science Tool Inc., Foster City, Calif.). A small incision was made in the common carotid artery and a nylon filament, its tip rounded by heating, prepared from a fishing line (Stren Fishing Lines, Wilmington, Del.) was inserted from the right common carotid artery. The filament was advanced into the internal carotid artery 18-20 mm from the point of bifurcation of internal and external arteries and a suture was tightly ligated around the filament. Two hours post occlusion, the animals were re-anesthetized to allow reperfusion for the remaining of the experiment by removal of the filament. The anesthetized animal were placed on a stereotaxic apparatus (Harvard Apparatus, S. Natick, Mass.). Anesthesia was maintained by inhalation of 3.0% isoflurane in […] throughout the entire procedure. The scalp was shaved and sterilized prior to surgery. A midline sagittal incision about 3 cm long was made slightly behind the eyes to expose the skull. The skull was scraped with a rounded end spatula to remove periosteal connective tissue. A bur hole was placed 1.5 mm lateral, 1 mm posterior to the left of the bregma to mark the left lateral ventricle. A brain infusion cannula (ALZET CO. Palo Alto, Calif.) was inserted 4 mm deep into the hole. The desired depth was adjusted by attaching spacers to the cannula. The cannula was attached to a 4-cm silastic catheter (Helix Medical Inc.) fixed in place with dental cement (Ketac-cement, Norristown, Pa.). The catheter was either attached to a primed osmotic pump placed subcutaneously between the shoulder blades for permanent infusion or to a syringe for a short infusion. Anesthesia was maintained by inhalation of 3.0% isoflurane in […] throughout the entire procedure. The exterior site of the right femoral vein was shaved and sterilized prior to surgery. A 3 cm incision was made in the right groin region and the femoral vein was isolated. A small incision was made on the femoral vein temporarily ligated with a microvascular clip to introduce and advance a polyethylene (PE-50) catheter (Becton. Dickinson and Co., Sparks, Md.). The catheter was secured in place with suture (silk 5/0, Carlisle Laboratories, Farmers Branch, Tex.). The other end of the catheter was attached to a syringe filled with the heparinized saline for the bolus injection. […]

## bromo-quercetin
[1]
  infarct size: reduce infarct size
[2]
  reductions of infarct volumes: greater than 50%

Source: US20020132845A1, “Compositions and methods for the prevention and treatment of tissue ischemia” (priority 2000, published 2002)
